Test results published in patent US9944602B2, “Piperidinone herbicides” (E. I. DU PONT DE NEMOURS AND COMPANY, priority 2014, dated 2018).

Assays:
Format in all cases: in vivo
[1] = system: barnyardgrass (Echinochloa crus-galli); assay: Test B flooded paddy test barnyardgrass; details: Table B, Flood, 250 g ai/ha, scale 0 to 100
How it was run: (§1)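 Test pots carrying 2-leaf-stage seedlings were flooded to 3 cm above the soil surface when treated. Compound went directly into the standing water. Plants stayed in the greenhouse at that depth for 13 to 15 d before visual comparison with controls.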

[2] = system: corn (Zea mays); assay: Test A postemergence corn; details: 0 to 100 scale, 0 is no effect, 100 is complete control
How it was run: (§2)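 Directed soil spray at planting gives preemergence data; foliar application to one- to two-leaf plants gives postemergence data. Response is visual injury relative to untreated controls about 10 d after treatment, scored 0–100.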

[3] = system: velvetleaf (Abutilon theophrasti); assay: Test A postemergence velvetleaf; details: 0 to 100 scale, 0 is no effect, 100 is complete control
Description: (§3) Seeds of plant species selected from barnyardgrass (Echinochloa crus-galli), kochia (Kochia scoparia), ragweed (common ragweed, Ambrosia elatior), ryegrass, Italian (Italian ryegrass, Lolium multiflorum), crabgrass, large (large crabgrass, Digitaria sanguinalis), foxtail, giant (giant foxtail, Setaria faberii), morningglory (Ipomoea spp.), pigweed (Amaranthus retroflexus), velvetleaf (Abutilon theophrasti), wheat (Triticum aestivum), and corn (Zea mays) were planted into a blend of loam soil and sand and treated preemergence with a directed soil spray using test chemicals formulated in a non-phytotoxic solvent mixture which included a surfactant.
(§4) At the same time, plants selected from these crop and weed species and also blackgrass (Alopecurus myosuroides), and galium (catchweed bedstraw, Galium aparine) were planted in pots containing the same blend of loam soil and sand and treated with postemergence applications of test chemicals formulated in the same manner. Plants ranged in height from 2 to 10 cm and were in the one- to two-leaf stage for the postemergence treatment. Treated plants and untreated controls were maintained in a greenhouse for approximately 10 d, after which time all treated plants were compared to untreated controls and visually evaluated for injury. Plant response ratings, summarized in Table A, are based on a 0 to 100 scale where 0 is no effect and 100 is complete control. A dash (-) response means no test result.

[4] = system: pigweed (Amaranthus retroflexus); assay: Test A postemergence pigweed; details: 0 to 100 scale, 0 is no effect, 100 is complete control
How it was run: as §2

[5] = system: foxtail, giant (giant foxtail, Setaria faberii); assay: Test A postemergence foxtail, giant; details: 0 to 100 scale, 0 is no effect, 100 is complete control
How it was run: as §2

[6] = system: sedge, umbrella (small-flower umbrella sedge, Cyperus difformis); assay: Test B flooded paddy test sedge, umbrella; details: Table B, Flood, 250 g ai/ha, scale 0 to 100
How it was run: as §1

[7] = system: barnyardgrass (Echinochloa crus-galli); assay: Test A postemergence barnyardgrass; details: 0 to 100 scale, 0 is no effect, 100 is complete control
How it was run: as §2

[8] = system: ducksalad (Heteranthera limosa); assay: Test B flooded paddy test ducksalad; details: Table B, Flood, 250 g ai/ha, scale 0 to 100
How it was run: as §1

[9] = system: wheat (Triticum aestivum); assay: Test A postemergence wheat; details: 0 to 100 scale, 0 is no effect, 100 is complete control
How it was run: as §2

[10] = system: morningglory (Ipomoea spp.); assay: Test A preemergence morningglory; details: 0 to 100 scale, 0 no effect, 100 complete control
Description: as §3, §4

[11] = system: rice (Oryza sativa); assay: Test B flooded paddy test rice; details: Table B, Flood, 250 g ai/ha, scale 0 to 100
How it was run: as §1

[12] = system: barnyardgrass (Echinochloa crus-galli); assay: Test A preemergence barnyardgrass; details: 0 to 100 scale
How it was run: as §2

[13] = system: velvetleaf (Abutilon theophrasti); assay: Test A preemergence velvetleaf; details: 0 to 100 scale, 0 no effect, 100 complete control
Description: as §3, §4

[14] = system: morningglory (Ipomoea spp.); assay: Test A postemergence morningglory; details: 0 to 100 scale, 0 is no effect, 100 is complete control
Description: as §3, §4

[15] = system: wheat (Triticum aestivum); assay: Test A preemergence wheat; details: 0 to 100 scale, 0 no effect, 100 complete control
Description: as §3, §4

[16] = system: foxtail, giant (giant foxtail, Setaria faberii); assay: Test A preemergence foxtail, giant; details: 0 to 100 scale, 0 no effect, 100 complete control
How it was run: as §2

[17] = system: corn (Zea mays); assay: Test A preemergence corn; details: 0 to 100 scale
Description: as §3, §4

[18] = system: crabgrass, large (large crabgrass, Digitaria sanguinalis); assay: Test A preemergence crabgrass, large; details: 0 to 100 scale
Description: as §3, §4

[19] = system: crabgrass, large (large crabgrass, Digitaria sanguinalis); assay: Test A postemergence crabgrass, large; details: 0 to 100 scale, 0 is no effect, 100 is complete control
Description: as §3, §4

[20] = system: pigweed (Amaranthus retroflexus); assay: Test A preemergence pigweed; details: 0 to 100 scale, 0 no effect, 100 complete control
How it was run: as §2

[21] = 125 g ai/ha, 0 no effect, 100 complete control
[22] = 500 g ai/ha, 0 is no effect, 100 is complete control

O=C1NCCC(c2ccccc2)C1C(=O)Nc1ccccc1C(F)(F)F (racemic) [Compound 2]
Plant response rating [1]: 0
Plant response rating, Corn ([2]; 125 g ai/ha): 0
Plant response rating, Corn ([2]; 500 g ai/ha): 0
Plant response rating, Velvetleaf ([3]; 125 g ai/ha): 0
Plant response rating, Velvetleaf ([3]; 500 g ai/ha): 0
Plant response rating, Pigweed ([4]; 125 g ai/ha): 0
Plant response rating, Pigweed ([4]; 500 g ai/ha): 0
Plant response rating, Foxtail, Giant ([5]; 125 g ai/ha): 0
Plant response rating, Foxtail, Giant ([5]; 500 g ai/ha): 0
Plant response rating [6]: 0
Plant response rating, Barnyardgrass ([7]; 125 g ai/ha): 0
Plant response rating, Barnyardgrass ([7]; 500 g ai/ha): 0
Plant response rating [8]: 0
Plant response rating, Wheat ([9]; 125 g ai/ha): 0
Plant response rating, Wheat ([9]; 500 g ai/ha): 0
Morningglory plant response rating ([10]; 125 g ai/ha): 0
Morningglory plant response rating ([10]; 500 g ai/ha): 0
Plant response rating [11]: 0
Barnyardgrass plant response rating [12, 21]: 0
Plant response rating, Barnyardgrass [12, 22]: 20
Velvetleaf plant response rating ([13]; 125 g ai/ha): 0
Velvetleaf plant response rating ([13]; 500 g ai/ha): 0
Plant response rating, Morningglory ([14]; 125 g ai/ha): 0
Plant response rating, Morningglory ([14]; 500 g ai/ha): 0
Wheat plant response rating ([15]; 125 g ai/ha): 0
Wheat plant response rating ([15]; 500 g ai/ha): 0
Foxtail, Giant plant response rating ([16]; 125 g ai/ha): 10
Foxtail, Giant plant response rating ([16]; 500 g ai/ha): 70
Corn plant response rating [17, 21]: 0
Plant response rating, Corn [17, 22]: 0
Crabgrass, Large plant response rating [18, 21]: 70
Plant response rating, Crabgrass, Large [18, 22]: 90
Plant response rating, Crabgrass, Large ([19]; 125 g ai/ha): 0
Plant response rating, Crabgrass, Large ([19]; 500 g ai/ha): 10
Pigweed plant response rating ([20]; 125 g ai/ha): 0
Pigweed plant response rating ([20]; 500 g ai/ha): 0
